Key:
[1] = tested on: RWPE cells expressing SLC45A3-BRAF; settings: sorafenib (10 μM) or U0126 (1 or 10 μM), FIG. 4a,b
Method: (§1) Cell invasion and proliferation assays. Equal numbers of cells were plated into 96-well plates, and a cell proliferation assay was performed using WST-1 reagent (Roche) following the manufacturer's protocol. For the Boyden chamber Matrigel invasion assay, equal numbers of cells were plated into each Matrigelcoated transwell in the presence of sorafenib or U0126 (Calbiochem) or DMSO (Sigma). Invasion assays were performed as described previously (Kleer, C. G. et al. Proc. Natl. Acad. Sci. USA 100, 11606-11611 (2003); Cao, Q. et al. Oncogene 27, 7274-7284 (2008)).

[2] = tested on: RWPE cells overexpressing SLC45A3-BRAF; settings: FIG. 3c
Method: as §1

[3] = tested on: RWPE cells expressing ESRP1-RAF1; settings: sorafenib (10 μM) or U0126 (1 or 10 μM), FIG. 4a,b
Method: as §1

[4] = tested on: RWPE cells overexpressing ESRP1-RAF1; experiment: Cell proliferation assay (WST-1); type: cell-based, human; settings: RWPE cells overexpressing ESRP1-RAF1, FIG. 3d
Source text: Cell invasion and proliferation assays.

[5] = tested on: RWPE cells stably expressing ESRP1-RAF1; settings: sorafenib or U0126 (10 μM), 14 d, FIG. 4c,d
Method: (§2) In vitro soft agar growth. For in vitro growth in soft agar, 2 ml of 0.6% SeaPlaque GTG Agarose (Cambrex) dissolved in complete keratinocyte supplement-free medium (Invitrogen) was poured into six-well dishes. After polymerization, a second layer containing 2 ml of 0.4% agar in complete keratinocyte supplement-free medium, and RWPE cells stably expressing SLC45A3-BRAF or ESRP1-RAF 1 (1×10^4 cells per well) were poured on top. The next day, cells were treated with sorafenib or U0126 (10 μM) in 1 ml of supplement-free keratinocyte medium. Soft-agar assay plates were incubated for 14 d at 37° C. MEK inhibitor (U0126) or sorafenib was changed once a week. Each experimental condition was done in triplicate. On day 14, colonies larger than 40 μm in diameter were counted.

[6] = tested on: RWPE cells stably expressing SLC45A3-BRAF; settings: sorafenib or U0126 (10 μM), 14 d, FIG. 4c,d
Method: as §2

BRAFV600E mutation = BRAFV600E mutation (Homo sapiens, UniProt P15056, V600E); settings: Sala et al. 2008; cited from earlier work
[7] = tested on: MEK and ERK phosphorylation in RWPE cells expressing ESRP1-RAF1; settings: U0126 (10 μM) for 2 h, FIG. 4e
Method: (§3) MEK-ERK signaling pathway analysis. Stable pooled populations of RWPE cells expressing SLC45A3-BRAF or […] were maintained in supplement-free medium without supplements for 2 h. For MEK inhibitor treatments, U0126 (10 μM) was added in the supplement-free keratinocyte medium for 2 h. MEK and ERK activation was assessed by western blot analysis with antibodies to phospho-MEK or ERK and total MEK or ERK antibodies (Cell Signaling Technologies).

[8] = tested on: MEK and ERK phosphorylation in RWPE cells expressing SLC45A3-BRAF; settings: U0126 (10 μM) for 2 h, FIG. 4e
Method: as §3

[9] = tested on: MEK½ and ERK½ phosphorylation in BRAFV600E mutation-positive melanoma cell line SK-MEL-94; settings: SK-MEL-94 control cell line
Method: as §3

[10] = tested on: DUSP6 or SPRY2 mRNA expression in RWPE cells expressing ESRP1-RAF1; settings: U0126, 10 mM, 2 hours, Keratinocyte-supplement free media, FIG. 11
Method: as §3
(§4) Real Time PCR validation. Quantitative PCR (QPCR) was performed using Power SYBR Green Mastermix (Applied Biosystems) on an Applied Biosystems StepOnePlus Real-Time PCR System. All oligonucleotide primers were obtained from Integrated DNA Technologies and are listed below. The GAPDH primer was used as a control. All assays were performed and repeated twice and results were plotted as average fold change relative to GAPDH.

[11] = tested on: DUSP6 or SPRY2 mRNA expression in RWPE cells expressing SLC45A3-BRAF; settings: U0126, 10 mM, 2 hours, Keratinocyte-supplement free media, FIG. 11
Method: as §3, §4

Chain of BRAFV600E mutation (P15056 whole entry V600E): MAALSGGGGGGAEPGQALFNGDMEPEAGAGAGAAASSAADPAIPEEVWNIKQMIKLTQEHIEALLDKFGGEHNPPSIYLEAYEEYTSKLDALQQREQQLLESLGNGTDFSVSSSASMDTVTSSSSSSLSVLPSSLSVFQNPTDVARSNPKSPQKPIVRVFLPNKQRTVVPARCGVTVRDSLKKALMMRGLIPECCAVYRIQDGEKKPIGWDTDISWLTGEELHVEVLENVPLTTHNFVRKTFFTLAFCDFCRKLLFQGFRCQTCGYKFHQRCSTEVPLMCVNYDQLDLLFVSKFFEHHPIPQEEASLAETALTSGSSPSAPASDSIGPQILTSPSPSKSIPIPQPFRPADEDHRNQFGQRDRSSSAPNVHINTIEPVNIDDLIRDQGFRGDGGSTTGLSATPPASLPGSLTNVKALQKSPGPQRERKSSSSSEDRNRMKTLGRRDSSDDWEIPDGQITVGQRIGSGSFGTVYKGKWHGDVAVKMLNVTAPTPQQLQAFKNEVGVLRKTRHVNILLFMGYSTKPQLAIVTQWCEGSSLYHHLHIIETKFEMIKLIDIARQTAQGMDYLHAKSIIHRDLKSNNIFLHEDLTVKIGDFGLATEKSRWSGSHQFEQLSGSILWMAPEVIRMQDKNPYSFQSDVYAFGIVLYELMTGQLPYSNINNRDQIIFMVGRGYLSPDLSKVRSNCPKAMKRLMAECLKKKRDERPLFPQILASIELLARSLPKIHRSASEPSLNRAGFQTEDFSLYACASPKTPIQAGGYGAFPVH

| SMILES | fusion-mediated cell invasion, sensitivity to inhibitor [1] | increased cell proliferation, sensitivity to inhibitor [2] | fusion-mediated cell invasion, sensitivity to inhibitor [3] | increased cell proliferation, sensitivity to inhibitor [4] | anchorage-independent colony growth in soft agar, sensitivity to inhibitor [5] | anchorage-independent colony growth in soft agar, sensitivity to inhibitor [6] | selectivity for the BRAFV600E mutation (BRAFV600E mutation) | MEK and ERK phosphorylation, sensitivity to inhibitor [7] | MEK and ERK phosphorylation, sensitivity to inhibitor [8] | MEK½ and ERK½ phosphorylation [9] | DUSP6 or SPRY2 mRNA expression [10] | DUSP6 or SPRY2 mRNA expression [11] |
| --- | --- | --- | --- | --- | --- | --- | --- | --- | --- | --- | --- | --- |
| CNC(=O)c1cc(Oc2ccc(NC(=O)Nc3ccc(Cl)c(C(F)(F)F)c3)cc2)ccn1 [sorafenib, N-(3-trifluoromethyl-4-chlorophenyl)-N′-(4-(2-methylcarbamoylpyridin-4-yl)oxyphenyl)urea] | sensitive | sensitive | sensitive | sensitive | sensitive | sensitive | – | – | – | – | – | – |
| CC(C)S(=O)(=O)Nc1ccc(F)c(C(=O)c2c[nH]c3ncc(-c4cccnc4)cc23)c1F [PLX-4032] | – | – | – | – | – | – | highly selective | – | – | – | – | – |
| N#CC(=C(/N)Sc1ccccc1N)/C(C#N)=C(\N)Sc1ccccc1N [U0126] | sensitive | – | sensitive | – | sensitive | sensitive | – | sensitive | sensitive | decreased | significantly decreases | significantly decreases |

— patent publication US11015224B2, “RAF gene fusions” (THE REGENTS OF THE UNIVERSITY OF MICHIGAN, priority 2010, dated 2021)
